Data taken from patent US11046697B2, “Compounds and compositions useful for treating disorders related to NTRK” (BLUEPRINT MEDICINES CORPORATION, priority 2015, dated 2021).
Like-named read-outs stand apart in the source and are kept apart here.

Tests used:
wild type NTRK1 enzyme = molecular target: T1, wild type NTRK1 enzyme (Homo sapiens, UniProt P04629); experiment: NTRK1 Wild Type Assay at 1 mM ATP; format: biochemical; details: 1 mM ATP; read-out: Enz NTRK1 IC50
T1 construct: purchased BPS Bioscience 40280
Description: NTRK1 Wild Type Assay at 1 mM ATP
The reaction was stopped by the addition of 70 μL of Stop buffer (100 mM HEPES pH 7.5, 0.015% Brij 35, 35 mM EDTA and 0.2% of Coating Reagent 3 (Caliper Lifesciences)). The plate was then read on a Caliper EZReader 2 (protocol settings: −1.7 psi, upstream voltage −500, downstream voltage −3000, post sample sip 35s).

[1] = system: KM12 wild type colon carcinoma cell line harboring the TPM3-NTRK1 fusion protein; experiment: NTRK wild type cellular assay (CellTiter-Glo growth inhibition); format: cell-based; details: 72 hr, CellTiter-Glo, read-out: KM12 (WT) IC50
Procedure, shortened: (§1)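 KM12 (TPM3-NTRK1 fusion) or KM12 Cliff (G595R) cells at 1000 cells/well in 10% FBS media were dosed with compounds at varying concentrations in duplicate after overnight plating.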

[2] = system: KM12 Cliff (G595R) cell line; experiment: NTRK G595R mutant cellular assay (CellTiter-Glo growth inhibition); format: cell-based; details: 72 hr, CellTiter-Glo
Procedure, shortened: as §1

T1 sequence (P04629 440-796 limits assumed): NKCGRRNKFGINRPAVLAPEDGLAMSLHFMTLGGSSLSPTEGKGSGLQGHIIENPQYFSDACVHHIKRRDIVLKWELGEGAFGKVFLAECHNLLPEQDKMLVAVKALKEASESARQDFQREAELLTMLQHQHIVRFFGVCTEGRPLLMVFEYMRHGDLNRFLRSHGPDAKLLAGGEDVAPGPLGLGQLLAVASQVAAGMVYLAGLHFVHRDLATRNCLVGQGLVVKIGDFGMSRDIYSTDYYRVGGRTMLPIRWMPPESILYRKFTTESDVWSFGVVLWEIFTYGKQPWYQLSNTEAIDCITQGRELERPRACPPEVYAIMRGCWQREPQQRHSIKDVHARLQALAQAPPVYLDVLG

Row | IC50 (wild type NTRK1 enzyme) | IC50 [1] | IC50 ([1]; Homo sapiens, KM12, 72 h) | Compound | IC50 [2] | IC50 ([2]; Homo sapiens, KM12, 72 h)
1 | < 10 nM | 10 to 100 nM | – | CN(Cc1cc(F)ccc1F)C(=O)c1n[nH]c2ncnc(NC3CCC(O)C3O)c12 (stereo not drawn) [Compound 28] | 10 to 100 nM | –
2 | < 10 nM | < 10 nM | – | O=C(c1n[nH]c2ncnc(N[C@H]3[C@H](O)[C@H](O)[C@@H]4C[C@@H]43)c12)N1C[C@@H](F)C[C@@H]1c1cc(Cl)ccc1F [Compound 215] | < 10 nM | –
3 | 10 to 100 nM | – | 10 to 100 nM | CN(Cc1cc(F)cc(Cl)c1F)C(=O)c1n[nH]c2ncnc(N[C@@H]3CC[C@@H](O)[C@H]3O)c12 [Compound 120] | – | 10 to 100 nM
4 | < 10 nM | – | < 10 nM | O=C(c1n[nH]c2ncnc(N[C@@H]3CCC[C@@H](O)[C@H]3O)c12)N1C[C@@H](F)C[C@@H]1c1cc(Cl)ccc1F [Compound 221] | – | < 10 nM
5 | 100 to 1000 nM | 100 to 1000 nM | – | O=C(NCc1cc(F)cc(Cl)c1)c1n[nH]c2ncnc(NC3CCC(O)C3O)c12 (stereo not drawn) [Compound 38] | 100 to 1000 nM | –
6 | < 10 nM | – | < 10 nM | O=C(c1n[nH]c2ncnc(N[C@@H]3CCC[C@@H](O)[C@H]3O)c12)N1C[C@@H](F)C[C@@H]1c1cc(F)cc(F)c1F [Compound 224] | – | < 10 nM
7 | < 10 nM | < 10 nM | – | CN(Cc1cc(Cl)ccc1Br)C(=O)c1n[nH]c2ncnc(N[C@@H]3CCC[C@@H](O)[C@H]3O)c12 [Compound 167] | < 10 nM | –
8 | 100 to 1000 nM | – | 100 to 1000 nM | Cc1ccc(F)cc1CNC(=O)c1n[nH]c2ncnc(N[C@@H]3CC[C@@H](O)[C@H]3O)c12 [Compound 2] | – | 100 to 1000 nM
9 | 10 to 100 nM | < 10 nM | – | O=C(c1n[nH]c2ncnc(N[C@@H]3C=C[C@@H](O)[C@H]3O)c12)N1C[C@@H](F)C[C@@H]1c1cc(F)cc(F)c1F [Compound 199] | < 10 nM | –
10 | 10 to 100 nM | – | 100 to 1000 nM | O=C(NCc1cc(F)ccc1Cl)c1n[nH]c2ncnc(N[C@@H]3CC[C@@H](O)[C@H]3O)c12 [Compound 36] | – | 100 to 1000 nM
11 | < 10 nM | 10 to 100 nM | – | O=C(NC(CO)c1cc(F)ccc1F)c1n[nH]c2ncnc(NC3CCCC3O)c12 (stereo not drawn) [Compound 27] | 10 to 100 nM | –
12 | 10 to 100 nM | 10 to 100 nM | – | CN(Cc1cccc(F)c1F)C(=O)c1n[nH]c2ncnc(N[C@@H]3CC[C@@H](O)[C@H]3O)c12 [Compound 139] | 10 to 100 nM | –
13 | < 10 nM | – | < 10 nM | O=C(c1n[nH]c2ncnc(N[C@@H]3C[C@@H](O)C[C@H]3O)c12)N1C[C@@H](F)C[C@@H]1c1cc(F)ccc1F [Compound 86] | – | < 10 nM
14 | < 10 nM | < 10 nM | – | O=C(c1n[nH]c2ncnc(N[C@H]3[C@H](O)[C@H](O)[C@@H]4C[C@@H]43)c12)N1C[C@@H](F)C[C@@H]1c1cc(F)ccc1OC(F)(F)F [Compound 242] | < 10 nM | –
15 | 10 to 100 nM | – | 10 to 100 nM | C[C@@H](NC(=O)c1n[nH]c2ncnc(N[C@@H]3CCC[C@H]3O)c12)c1cc(F)ccc1F [Compound 7] | – | 10 to 100 nM
16 | < 10 nM | < 10 nM | – | COc1c(F)cc(F)cc1[C@H]1C[C@H](F)CN1C(=O)c1n[nH]c2ncnc(N[C@H]3[C@H](O)[C@H](O)[C@@H]4C[C@@H]43)c12 [Compound 233] | < 10 nM | –
17 | 100 to 1000 nM | 100 to 1000 nM | – | CN(Cc1cccnc1F)C(=O)c1n[nH]c2ncnc(N[C@@H]3CC[C@@H](O)[C@H]3O)c12 [Compound 133] | 100 to 1000 nM | –
18 | 100 to 1000 nM | 100 to 1000 nM | – | O=C(NCc1cc(F)ccc1F)c1n[nH]c2ncnc(NC3CCC(F)C3O)c12 (stereo not drawn) [Compound 18] | > 1000 nM | –
19 | 10 to 100 nM | 100 to 1000 nM | – | O=C(NCc1cc(F)cc(F)c1F)c1n[nH]c2ncnc(N[C@@H]3COCC[C@H]3O)c12 [Compound 40] | 100 to 1000 nM | –
20 | 10 to 100 nM | – | 10 to 100 nM | O=C(c1n[nH]c2ncnc(N[C@@H]3CC[C@@H](O)[C@H]3O)c12)N1CCC[C@@H]1c1cc(F)ccc1F [Compound 71] | – | 100 to 1000 nM
21 | 10 to 100 nM | – | 10 to 100 nM | CN(Cc1cc(Cl)ccc1C#N)C(=O)c1n[nH]c2ncnc(N[C@@H]3CC[C@@H](O)[C@H]3O)c12 [Compound 156, N-(5-chloro-2-cyanobenzyl)-4-(((1R,2S,3R)-2,3-dihydroxycyclopentyl)amino)-N-methyl-1H-pyrazolo[3,4-d]pyrimidine-3-carboxamide] | – | < 10 nM
22 | < 10 nM | – | 10 to 100 nM | O=C(c1n[nH]c2ncnc(N[C@@H]3CCOC[C@H]3O)c12)N1C[C@@H](F)C[C@@H]1c1cc(Cl)ccc1F [Compound 200] | – | 10 to 100 nM

Row | IC50 (wild type NTRK1 enzyme) | IC50 [1] | IC50 ([1]; Homo sapiens, KM12, 72 h) | Compound | IC50 [2] | IC50 ([2]; Homo sapiens, KM12, 72 h)
23 | 100 to 1000 nM | 100 to 1000 nM | – | O=C(NC1(c2cc(F)ccc2F)CC1)c1n[nH]c2ncnc(N[C@@H]3COCC[C@H]3O)c12 [Compound 47] | 100 to 1000 nM | –
24 | 10 to 100 nM | – | 10 to 100 nM | O=C(c1n[nH]c2ncnc(N[C@H]3[C@H](O)[C@H](O)[C@@H]4C[C@@H]43)c12)N1CC(F)(F)C[C@@H]1c1cc(F)ccc1F [Compound 112] | – | 100 to 1000 nM
25 | < 10 nM | – | 10 to 100 nM | N#Cc1cc(F)cc([C@H]2C[C@H](F)CN2C(=O)c2n[nH]c3ncnc(N[C@H]4[C@H](O)[C@H](O)[C@@H]5C[C@@H]54)c23)c1 [Compound 129] | – | 10 to 100 nM
26 | 10 to 100 nM | 10 to 100 nM | – | CN(Cc1cc(F)cnc1Cl)C(=O)c1n[nH]c2ncnc(NC3CCOCC3O)c12 (stereo not drawn) [Compound 150] | 10 to 100 nM | –
27 | < 10 nM | – | 10 to 100 nM | O=C(c1n[nH]c2ncnc(N[C@@H]3CCOC[C@H]3O)c12)N1C[C@@H](F)C[C@@H]1c1cc(F)cnc1Cl [Compound 202] | – | 10 to 100 nM
28 | < 10 nM | – | 10 to 100 nM | COc1ncc(F)cc1[C@H]1C[C@H](F)CN1C(=O)c1n[nH]c2ncnc(N[C@@H]3CCOC[C@H]3O)c12 [Compound 190] | – | 10 to 100 nM
29 | 100 to 1000 nM | – | 10 to 100 nM | O=C(c1n[nH]c2ncnc(N[C@@H]3CCOC[C@H]3O)c12)N1C[C@@H](F)C[C@@H]1c1ccccc1 [Compound 145] | – | 100 to 1000 nM
30 | < 10 nM | – | < 10 nM | N#C[C@H]1C[C@H](c2cc(F)ccc2F)N(C(=O)c2n[nH]c3ncnc(N[C@@H]4CCC[C@H]4O)c23)C1 [Compound 79] | – | 10 to 100 nM
31 | < 10 nM | – | < 10 nM | O=C(c1n[nH]c2ncnc(N[C@@H]3CC[C@@H](O)[C@H]3O)c12)N1C[C@@H](F)C[C@@H]1c1cc(F)ccc1Cl [Compound 195] | – | < 10 nM
32 | < 10 nM | < 10 nM | – | N#CC1CC(O)C(Nc2ncnc3[nH]nc(C(=O)N4CC(F)CC4c4cc(F)ccc4F)c23)C1 (stereo not drawn) [Compound 184] | < 10 nM | –
33 | < 10 nM | – | 10 to 100 nM | CN(Cc1cc(F)ccc1OC(F)(F)F)C(=O)c1n[nH]c2ncnc(N[C@@H]3CC[C@@H](O)[C@H]3O)c12 [Compound 110] | – | 10 to 100 nM
34 | 100 to 1000 nM | > 1000 nM | – | O=C(NCc1cc(F)ccc1F)c1n[nH]c2ncnc(NC3CC(F)CC3O)c12 (stereo not drawn) [Compound 16] | > 1000 nM | –
35 | < 10 nM | – | < 10 nM | CC(C)(O)[C@H]1C[C@@H](O)[C@H](Nc2ncnc3[nH]nc(C(=O)N4C[C@@H](F)C[C@@H]4c4cc(F)ccc4F)c23)C1 [Compound 232, ((2R,4S)-2-(2,5-difluorophenyl)-4-fluoropyrrolidin-1-yl)(4-(((1R,2R,4R)-2-hydroxy-4-(2-hydroxypropan-2-yl)cyclopentyl)amino)-1H-pyrazolo[3,4-d]pyrimidin-3-yl)methanone] | – | < 10 nM
36 | 100 to 1000 nM | 100 to 1000 nM | – | CN(Cc1cccc(C#N)c1)C(=O)c1n[nH]c2ncnc(N[C@@H]3CC[C@@H](O)[C@H]3O)c12 [Compound 134] | 100 to 1000 nM | –
37 | 100 to 1000 nM | 100 to 1000 nM | – | O=C(NCc1cc(F)ccc1F)c1n[nH]c2ncnc(NC3CC(F)CC3O)c12 (stereo not drawn) [Compound 14] | 100 to 1000 nM | –
38 | < 10 nM | < 10 nM | – | N#CC1CC(O)C(Nc2ncnc3[nH]nc(C(=O)N4CC(F)CC4c4cc(F)cc(F)c4)c23)C1 (stereo not drawn) [Compound 185] | < 10 nM | –
39 | 10 to 100 nM | – | 10 to 100 nM | CN(Cc1cccc(F)c1)C(=O)c1n[nH]c2ncnc(N[C@@H]3CC[C@@H](O)[C@H]3O)c12 [Compound 132] | – | 100 to 1000 nM
40 | < 10 nM | < 10 nM | – | COc1c(F)cc(F)cc1C1CC(F)CN1C(=O)c1n[nH]c2ncnc(NC3CCOCC3O)c12 (stereo not drawn) [Compound 218] | < 10 nM | –
41 | < 10 nM | – | 10 to 100 nM | CS(=O)(=O)[C@H]1C[C@@H](O)[C@H](Nc2ncnc3[nH]nc(C(=O)NCc4cc(F)ccc4F)c23)C1 [Compound 97, N-(2,5-difluorobenzyl)-4-(((1R,2R,4R)-2-hydroxy-4-(methylsulfonyl)cyclopentyl)amino)-1H-pyrazolo[3,4-d]pyrimidine-3-carboxamide] | – | 100 to 1000 nM
42 | < 10 nM | < 10 nM | – | CN(C(=O)c1n[nH]c2ncnc(NC3CC(C(F)F)CC3O)c12)C(CO)c1cc(F)ccc1F (stereo not drawn) [Compound 180] | < 10 nM | –
43 | < 10 nM | 10 to 100 nM | – | O=C(c1n[nH]c2ncnc(N[C@@H]3CC[C@@H](O)[C@H]3O)c12)N1C[C@@H](F)C[C@@H]1c1cccc(F)c1F [Compound 176] | 10 to 100 nM | –
